Data as given in patent publication US11691974B2, “3,9-diazaspiro[5,5]undecane compound as FLT3 and AXL inhibitors” (MEDSHINE DISCOVERY INC., priority 2018, dated 2023).

Key:
[1] = system: human biphenotypic B bone marrow mononuclear leukemia cell MV4-11 subcutaneous xenograft tumor; test: Inhibition of MV4-11 subcutaneous xenograft tumor in vivo; set-up: species or system nude mice; conditions: for Average tumor volume Day 25 / Average tumor volume Day 35: then drug withdrawal; for Average tumor volume Day 0: baseline at start of dosing
Description: In this assay, the anti-tumor effect of the compounds was evaluated using a nude mice model of subcutaneous xenograft tumor of human biphenotypic B bone marrow mononuclear leukemia cell MV4-11.
Human biphenotypic B bone marrow mononuclear leukemia cell MV4-11 was cultured in vitro in suspension with a RPMI1640 medium supplemented with 10% fetal bovine serum, 100 U/mL penicillin and 100 μg/mL streptomycin in a 5% CO2 cell incubator at 37° C. Routine passaging was performed twice a week. Cells in the logarithmic growth phase were collected, counted and then used for inoculation.
10×10^6 MV4-11 cells were inoculated subcutaneously on the back of the right neck of each mouse, wherein the inoculation volume was 0.2 mL, and the cell suspension was PBS plus matrigel (volume ratio 1:1). The assay of efficacy in vivo was performed on the 13th day after the cell inoculation, at which time the average tumor volume reached 181 mm^3. The mice were randomly divided into groups with 6 mice in each group, and administration to the mice started.
The diameter of the tumor was measured with vernier calipers twice a week. The formula for calculating the tumor volume is: V=0.5a×b^2, where a and b represent the long and short diameters of the tumor, respectively.
After 14 days of administration, the administration was stopped, and the rebound of the tumor was observed.

MV-4-11 cells = test: Assay of inhibiting proliferation of MV-4-11 in vitro (CellTiter-Glo); format: cell-based; conditions: Homo sapiens, MV4-11, 72 h, 3 days
Description: IMDM medium, fetal bovine serum, and penicillin/streptomycin antibiotics were purchased from Promega (Madison, Wis.). The MV-4-11 cell line was purchased from the Cell Bank of the Chinese Academy of Sciences. Envision Multi-Label Analyzer (PerkinElmer).
MV-4-11 cells were seeded in a white 96-well plate with 80 μL of cell suspension per well containing 10,000 MV-4-11 cells. The cell plate was cultured overnight in a carbon dioxide incubator.
The compounds to be tested were 5-fold serially diluted with a pipette to obtain eight concentrations, i.e., from 2 mmol/L to 26 nmol/L. The assay was carried out in duplicate. 78 μL of medium was added to the intermediate plate, and then 2 μL per well of the serially diluted compounds were transferred to the intermediate plate according to the corresponding position. After mixing, an amount of 20 μL per well was transferred to the cell plate. The cell plate was cultured in a carbon dioxide incubator for 3 days.
25 μL per well of Promega CellTiter-Glo reagent was added to the cell plate and incubated at room temperature for 10 minutes to stabilize the luminescence signal. A PerkinElmer Envision multi-label analyzer was used for reading.
The original data was converted into an inhibition rate, and the IC50 value can be obtained by four-parameter curve fitting.

[2] = system: human acute myeloma MOLM-13 cell line subcutaneous xenograft; test: Inhibition of Molm-13 subcutaneous xenograft tumor in vivo; set-up: species or system NOD/SCID female mice; conditions: for Average tumor volume Day 0: baseline
Description: The purpose of this assay is to evaluate the pharmacodynamics of the compounds in the NOD/SCID female mice model of human acute myeloma MOLM-13 cell line subcutaneous xenograft.
MOLM-13 cells were cultured in RPMI-1640 medium containing 10% fetal bovine serum. The MOLM-13 cells were collected in the exponential growth phase, and resuspended in PBS to a suitable concentration for subcutaneous tumor inoculation in nude mice.
The assay mice were inoculated with 5×10^6 MOLM-13 cells resuspended in 0.1 ml of PBS (0.1 ml per mouse) subcutaneously on the right back. Tumor growth was regularly observed. When the tumor grew to an average volume of 98 mm^3, the mice were randomly divided into groups and administered according to tumor size and body weight of the mice.
After the start of administration, the body weight and tumor size of the mice were measured three times a week. The formula for calculating the tumor volume is: tumor volume (mm^3)=½×(a×b^2) (where a represents the long diameter and b represents the short diameter).

[3] = 20 mg/kg oral once a day for 14 days
[4] = 5 mg/kg oral once a day for 14 days

SMILES	% Inhibition rate on day 14 ([1]; 20 mg/kg oral once a day) [%]	Average tumor volume Day 14 ([1]; 20 mg/kg oral once a day) [cubic millimeter]	Average tumor volume Day 25 [1, 3] [cubic millimeter]	Average tumor volume Day 35 [1, 3] [cubic millimeter]	Average tumor volume Day 0 ([1]; 20 mg/kg oral once a day group) [cubic millimeter]	IC50 (MV-4-11 cells) [nM]	% Inhibition rate on day 14 ([1]; 5 mg/kg oral once a day) [%]	Average tumor volume Day 14 ([1]; 5 mg/kg oral once a day) [cubic millimeter]	Average tumor volume Day 25 [1, 4] [cubic millimeter]	Average tumor volume Day 35 [1, 4] [cubic millimeter]	Average tumor volume Day 0 ([1]; 5 mg/kg oral once a day group) [cubic millimeter]	Average tumor volume Day 11 ([2]; 15 mg/kg oral once a day) [cubic millimeter]	Average tumor volume Day 15 ([2]; 15 mg/kg oral once a day) [cubic millimeter]	Average tumor volume Day 11 ([2]; 50 mg/kg oral once a day) [cubic millimeter]	Average tumor volume Day 15 ([2]; 50 mg/kg oral once a day) [cubic millimeter]	Average tumor volume Day 0 ([2]; 15 mg/kg oral once a day group) [cubic millimeter]	Average tumor volume Day 0 ([2]; 50 mg/kg oral once a day group) [cubic millimeter]
CCc1nc(C(N)=O)c(Nc2ccc(N3CCC4(CCN(C)CC4)CC3)c(OC)c2)nc1NC1CCOCC1 [Compound A]	118	39	258	988	181	5.4	–	–	–	–	–	–	–	–	–	–	–
CCc1nc(C(N)=O)c(Nc2ccc(N3CCC(N4CCN(C)CC4)CC3)c(OC)c2)nc1NC1CCOCC1 [Compound B]	–	–	–	–	–	4.65	118	41	320	1279	181	–	–	–	–	–	–
CCc1nc(C(N)=O)c(Nc2ccc(N3CCC4(CCN(C)CC4)CC3)c(C)c2)nc1NC1CCOCC1 [Compound of formula (I)]	–	–	–	–	–	–	–	–	–	–	–	156.85	223.09	53.08	0	98.34	98.05
